Structures can show the parent of a compound that is named as a salt.
Legend:
COX-2 = molecular target: T1, COX-2 (Rattus norvegicus, UniProt P35355); experiment: Colonic mucosal COX-2 activity after dietary treatment; format: in vivo, male F344 rats; conditions: 100 ppm in diet; AOM-treated rats, colonic mucosa; Mean ± SEM
T1 sequence (P35355 18-604): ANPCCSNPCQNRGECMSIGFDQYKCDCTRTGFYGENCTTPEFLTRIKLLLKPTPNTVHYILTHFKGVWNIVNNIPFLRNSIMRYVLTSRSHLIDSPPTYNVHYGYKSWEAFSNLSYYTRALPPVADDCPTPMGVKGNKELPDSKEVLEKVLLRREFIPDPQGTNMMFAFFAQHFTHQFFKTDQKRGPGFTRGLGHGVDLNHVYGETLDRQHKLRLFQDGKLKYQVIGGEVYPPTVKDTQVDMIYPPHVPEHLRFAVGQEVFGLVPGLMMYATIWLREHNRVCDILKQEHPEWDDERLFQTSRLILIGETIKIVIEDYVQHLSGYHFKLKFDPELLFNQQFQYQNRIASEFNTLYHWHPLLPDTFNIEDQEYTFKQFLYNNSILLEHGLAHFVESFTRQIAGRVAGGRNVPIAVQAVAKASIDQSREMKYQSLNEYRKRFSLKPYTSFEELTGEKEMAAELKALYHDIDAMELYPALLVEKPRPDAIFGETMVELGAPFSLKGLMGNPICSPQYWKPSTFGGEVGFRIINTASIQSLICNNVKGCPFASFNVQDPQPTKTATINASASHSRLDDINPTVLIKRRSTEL
Method: For determining COX-2 activity, proteins were preincubated with 50 μM of aspirin to block the activity of COX-1. After incubation at 37° C. for 15 min, the reaction was terminated by adding 40 μl of 0.2 M HCl. The COX-mediated metabolites of arachidonic acid were extracted with ethyl acetate (3×0.5 ml). The combined extracts were evaporated to dryness under N2, redissolved in chloroform, and subjected to thin layer chromatography on precoated TLC plastic plates (silica G 60, 20×20 cm, layer thickness 150 μm). […] The metabolites of ^14C-AA corresponding to PGE2, PGF2α, PGD2, 6-Keto PGF1α, and TXB2 were detected by their comigration (Rf-values) with authentic standards. The area of each metabolite was determined in a Bioscan System 200 image scanning counter (Bioscan Inc., Washington, D.C.) equipped with β-detector.

iNOS = iNOS (Rattus norvegicus, UniProt Q06518); experiment: Colonic mucosal iNOS activity after dietary treatment; format: in vivo, male F344 rats
Method: In Vivo Assay of Modulation of Colonic Mucosal Activities of NOS and COX isoforms by iNOS and COX-2 Inhibitors
NOS and iNOS activities were determined in colonic samples as prepared and described above. Conversion of L-arginine to L-citrulline was measured by a modification of an earlier described method (Rao et al, Carcinogenesis 21, supra; Ambs et al., Cancer Res. 58:334-41, 1998, which is herein incorporated by reference). The assay was carried out by adding 100 μg sample protein to 150 μl of assay buffer [50 mM HEPES, 1 mM DTT, 1 mM MgCl2, 5 mg/L pepstatin A, 0.1 mM PMSF, and 3 mg/L aprotinin, pH 7.4] containing 70 μM arginine, 250,000 dpm L-[^3H]-arginine, 2 mM NADPH, 5μM tetrahydro biopterin, 5 μM flavin adenine dinucleotide, and 0.5 mM CaCi2 to measure total NOS activity, or 1 mM EGTA (without calcium) to determine Ca+^2-independent iNOS activity. After 30 min at 37° C., the reaction was stopped with 100 μl of 1M trichloroacetic acid. Then the samples were adjusted to pH 4.6 by adding 500 μl of 20 mM HEPES and loaded on to Dowex AG 50W-X8 resin columns. L-[^3H]-citrulline was eluted and separated on TLC. Radioactivity was counted by a BioScan Radiomatic detector. Results are expressed as pmol L-[^3H]-citrulline released/mg protein/min.

in vivo = conditions: male, F344, rat, plasma, oral
AOM-induced colonic ACF = experiment: Chemopreventive effects in rats with azoxymethane-induced aberrant crypt foci; format: in vivo, male F344 rats; conditions: for Foci containing 1 Crypt / Foci containing 2 Crypt / Foci containing 3 Crypt / Foci containing ≧4 Crypts / Total ACF incidence: AOM-treated male F344 rats, Mean ± SEM
Source text: In Vivo Assay of Chemopreventive Effects of Therapeutic Compounds in Rats with Azoxymethane-induced Aberrant Crypt Foci
Azoxymethane (AOM) (CAS:25843-45-2) was purchased from Ash Stevens (Detroit, Mich.). iNOS and COX-2 selective inhibitors were provided by Pharmacia, (St. Louis, […].). Sulindac, a non-selective inhibitor of COX-isoforms and a known inhibitor of colon carcinogenesis, was supplied by the Chemoprevention Branch of the National Cancer Institute (Bethesda, Md.). Weanling male F344 rats were purchased from Charles River Breeding Laboratories (Kingston, N.Y.). All ingredients of the semipurified diet were obtained from Dyets Inc., (Bethlehem, Pa.) and were stored at 4° C. until the experimental diets were prepared. The rats were held in quarantine for 1 week and had access to modified AIN-76A semipurified control diet (Reddy et al., Cancer Res. 50: 2562-2568, 1990, which is herein incorporated by reference.). They were randomly distributed into various dietary groups and were transferred to an animal holding room where they were housed, three rats to a plastic cage, under controlled conditions of a 12-h light/12-h dark cycle, 50% relative humidity and 21° C. room temperature. Experimental diets were prepared by mixing chemopreventive agents with modified AIN-76A control diet.
To quantify aberrant crypt foci, after a minimum of 24 h in buffered formalin, the colons were cut into 2-cm segments starting at the anus; for the next 5-10 min they were placed in a Petri dish containing 0.2% methylene blue in Krebs Ringer solution. They were then placed, mucosal side up, on a microscope slide and observed through a light microscope. Aberrant crypt foci were recorded according to standard procedures that are being used routinely in our laboratory (Rao et al., Carcinogenesis 21: 617-21, 2000; Rao et al., Cancer Res. 53:4182-88, 1993, which are herein incorporated by reference.). […] The parameters used to assess the aberrant crypts were their occurrence and multiplicity. Crypt multiplicity was determined as the number of crypts in each focus and categorized as containing up to 3, or 4 or more aberrant crypts/focus.

## CC(=N)NCCCC[C@H](N)C(=O)Nc1nnn[nH]1 [compound XI, 2S-amino-6-[(1-iminoethyl)amino]-N-(1H-tetrazol-5-yl)hexanamide, hydrate, dihydrochloride]
COX-2
  COX-Activity, COX-2: 1.8 ± 0.3 pmoles [^14C]-AA metabolized/m
iNOS; 100 ppm
  suppression of AOM-induced colonic mucosal iNOS activity: ~37%
iNOS; 100 ppm in diet, AOM-treated rats, colonic mucosa, Mean ± SEM
  NOS Activity, iNOS: 1.6 ± 0.2 pmoles [^3H]-citrulline/mg pro
In vivo; 10 ppm in diet
  concentration at 1 week on diet: 461 ng/mL
  concentration at 5 weeks on diet: 341 ng/mL
  concentration at 9 weeks on diet: 254 ng/mL
In vivo; 20 ppm in diet
  concentration at 1 week on diet: 1320 ± 71 ng/mL
  concentration at 5 weeks on diet: 821 ± 32 ng/mL
  concentration at 9 weeks on diet: 742 ± 7 ng/mL
In vivo; 100 ppm in diet
  concentration at 1 week on diet: 4310 ng/mL
  concentration at 5 weeks on diet: 2810 ng/mL
  concentration at 9 weeks on diet: 2640 ng/mL
AOM-induced colonic ACF; 10 ppm in diet
  Foci containing 1 Crypt: 28.2 ± 1.8
  Foci containing 2 Crypt: 31.7 ± 2.7
  Foci containing 3 Crypt: 29.3 ± 2.3
  Foci containing ≧4 Crypts: 25.6 ± 1.8
  Total ACF incidence: 115 ± 4.8
AOM-induced colonic ACF; 30 ppm in diet
  Foci containing 1 Crypt: 28.7 ± 2.9
  Foci containing 2 Crypt: 32.6 ± 1.8
  Foci containing 3 Crypt: 24.8 ± 1.7
  Foci containing ≧4 Crypts: 22 ± 2.7
  Total ACF incidence: 108 ± 5.5
AOM-induced colonic ACF; 100 ppm in diet
  Foci containing 1 Crypt: 28.6 ± 2.2
  Foci containing 2 Crypt: 33.6 ± 2.1
  Foci containing 3 Crypt: 17.7 ± 1.1
  Foci containing ≧4 Crypts: 13.9 ± 1.1
  Total ACF incidence: 93.8 ± 4.2
AOM-induced colonic ACF; 100 ppm, compared to control diet
  effect on AOM-induced total colonic ACF and multicrypt clusters of 4 or more crypts: suppressed

Source: patent publication US7012098B2, “Inhibitors of inducible nitric oxide synthase for chemoprevention and treatment of cancers” (Pharmacia Corporation, priority 2001, dated 2006)
